Experimental data taken from article PMC10757720, “Impact of CRAMP-34 on Pseudomonas aeruginosa biofilms and extracellular metabolites” (Frontiers in Cellular and Infection Microbiology, 2023).
Converted amounts (≈) assume the structure as drawn. Where two headings read alike, the source gives them in different places. Positions of bridges follow the written chain, without caps; N, C: chain ends. Non-standard residues stand in square brackets, D forms with d. Residues, ends and D or L forms follow the SMILES beside them. No end group written: not given here. *: point of attachment. X1 = CC[C@H](C)CCCCC(=O)*; Dab = NCC[C@H](N)C(=O)O

Key:
PAO1 = assay: microbe, parasite or virus in culture; type: cell-based, Pseudomonas aeruginosa
Description: Supplement DataSheet_1.docx, table 1: Table S1 Minimum inhibitory concentrations of various drugs against PAO1 | column: MIC(μg/mL)

[1] = system: PAO1 planktonic and dispersed bacteria; assay: Inducible resistance, multi-step induction over 25 generations; type: cell-based, Pseudomonas aeruginosa; conditions: for increase in the MIC value after induction: 25 continuous generations, induction with the agent alone at 1/4 MIC, consistent across planktonic and dispersed bacteria; for MIC values after co-induction with CRAMP-34: antibiotic at 1/4 MIC combined with CRAMP-34 at 1/4 MIC, 25 generations, vs antibiotic alone, planktonic and dispersed bacteria
Method: Bacterial resistance was induced in vitro using a modified multi-step method ([Zhu et al., 2017]). The method of obtaining dispersed bacteria was described previously ([Zhang et al., 2022]). Planktonic bacteria and biofilm dispersion bacteria were induced at the initial 1/4 MIC concentration of antimicrobial agents every 24 hours. The latest MIC was measured every 2 generations and the drug concentration was changed according to the latest results.

surface-attached biofilm = conditions: exogenous addition of succinate and glutamate; ref Sauer et al., 2004; cited from earlier work
PAO1 preformed biofilms = assay: Effect of exogenous glutamate and succinate on PAO1 preformed biofilm biomass; conditions: preformed 96-h-old biofilms, different concentrations, 37°C, 24 h; certain dose-dependent effect (one way ANOVA)
[2] = Pseudomonas aeruginosa, read-out: MIC

Molecule: NCC[C@H](O)C(=O)N[C@@H]1C[C@H](N)[C@@H](O[C@H]2O[C@H](CN)[C@@H](O)[C@H](O)[C@H]2O)[C@H](O)[C@H]1O[C@H]1O[C@H](CO)[C@@H](O)[C@H](N)[C@H]1O [Amikacin]
- MIC (PAO1; [2]): 0.25 µg/mL (≈ 0.427 µM)

Molecule: CC[C@H]1OC(=O)[C@H](C)[C@@H](O[C@H]2C[C@@](C)(OC)[C@@H](O)[C@H](C)O2)[C@H](C)[C@@H](O[C@@H]2O[C@H](C)C[C@H](N(C)C)[C@H]2O)[C@](C)(O)C[C@@H](C)CN(C)[C@H](C)[C@@H](O)[C@]1(C)O [Azithromycin]
- MIC (PAO1; [2]): 16 µg/mL (≈ 21.4 µM)

Molecule: CCN1CCN(C(=O)N[C@@H](C(=O)N[C@@H]2C(=O)N3C(C(=O)O)=C(CSc4nnnn4C)CS[C@H]23)c2ccc(O)cc2)C(=O)C1=O [Cefoperazone]
- MIC (PAO1; [2]): 4 µg/mL (≈ 6.2 µM)

Molecule: CO/N=C(\C(=O)N[C@@H]1C(=O)N2C(C(=O)[O-])=C(C[n+]3cccc4c3CCCC4)CS[C@H]12)c1csc(N)n1.O=S(=O)(O)O [Cefoquinol]
- MIC (PAO1): 2 µg/mL

Molecule: CC(C)(O/N=C(\C(=O)N[C@@H]1C(=O)N2C(C(=O)[O-])=C(C[n+]3ccccc3)CS[C@H]12)c1csc(N)n1)C(=O)O [Ceftazidime]
- MIC (PAO1; [2]): 1 µg/mL (≈ 1.83 µM)

Molecule: O=C(O)c1cn(C2CC2)c2cc(N3CCNCC3)c(F)cc2c1=O [Ciprofloxacin]
- MIC (PAO1; [2]): 0.031 µg/mL (≈ 0.0936 µM)
- increase in the MIC value after induction [1]: sixty-fourfold
- MIC values after co-induction with CRAMP-34 [1]: significantly reduced

Molecule: CC[C@H](C)CCCCC(=O)N[C@@H](CCN)C(=O)N[C@H](C(=O)N[C@@H](CCN)C(=O)N[C@H]1CCNC(=O)[C@H]([C@@H](C)O)NC(=O)[C@H](CCN)NC(=O)[C@H](CCN)NC(=O)[C@H](CC(C)C)NC(=O)[C@@H](CC(C)C)NC(=O)[C@H](CCN)NC1=O)[C@@H](C)O [Colistin] (X1-[Dab]T[Dab][Dab][Dab][dL]L[Dab][Dab]T; lactam 4-C (inferred); N-terminus assumed)
- MIC (PAO1): 0.25 µg/mL (≈ 0.214 µM)
- increase in the MIC value after induction [1]: thirty-twofold
- MIC values after co-induction with CRAMP-34 [1]: significantly reduced

Molecule: CCN1CCN(c2cc3c(cc2F)c(=O)c(C(=O)O)cn3C2CC2)CC1 [Enrofloxacin]
- MIC (PAO1; [2]): 0.5 µg/mL (≈ 1.39 µM)

Molecule: CNC(C)C1CCC(N)C(OC2C(N)CC(N)C(OC3OCC(C)(O)C(NC)C3O)C2O)O1 (centres unmarked) [Gentamicin]
- MIC (PAO1; [2]): 0.5 µg/mL (≈ 1.05 µM)

Molecule: C[C@@H](O)[C@H]1C(=O)N2C(C(=O)O)=C(SCCN=CN)C[C@H]12 [Imipenem]
- MIC (PAO1; [2]): 2 µg/mL (≈ 6.68 µM)

Molecule: C[C@@H](O)[C@H]1C(=O)N2C(C(=O)O)=C(S[C@@H]3CN[C@H](C(=O)N(C)C)C3)[C@H](C)[C@H]12 [Meropenem]
- MIC (PAO1; [2]): 0.5 µg/mL (≈ 1.3 µM)

Molecule: CCN1CCN(C(=O)N[C@@H](C(=O)N[C@@H]2C(=O)N3[C@@H]2SC(C)(C)[C@@H]3C(=O)O)c2ccccc2)C(=O)C1=O [Piperacillin]
- MIC (PAO1; [2]): 2 µg/mL (≈ 3.86 µM)

Molecule: CC[C@H]1OC(=O)[C@H](C)[C@@H](O[C@H]2C[C@@](C)(OC)[C@@H](O)[C@H](C)O2)[C@H](C)[C@@H](O[C@@H]2O[C@H](C)C[C@H](N(C)C)[C@H]2O)[C@](C)(O)C[C@@H](C)/C(=N\OCOCCOC)[C@H](C)[C@@H](O)[C@]1(C)O [Roxithromycin]
- MIC (PAO1; [2]): 512 µg/mL (≈ 612 µM)

Molecule: CN[C@H](CC(C)C)C(=O)N[C@H]1C(=O)N[C@@H](CC(N)=O)C(=O)N[C@H]2C(=O)N[C@H]3C(=O)N[C@H](C(=O)N[C@H](C(=O)O)c4cc(O)cc(O)c4-c4cc3ccc4O)[C@H](O)c3ccc(c(Cl)c3)Oc3cc2cc(c3O[C@@H]2O[C@H](CO)[C@@H](O)[C@H](O)[C@H]2O[C@H]2C[C@](C)(N)[C@H](O)[C@H](C)O2)Oc2ccc(cc2Cl)[C@H]1O [Vancomycin]
- MIC (PAO1; Pseudomonas aeruginosa): 1020 µg/mL (≈ 707 µM)

Molecule: N[C@@H](CCC(=O)O)C(=O)O [glutamate]
- reduction in surface-attached biofilm biomass (surface-attached biofilm): ~80%
- effect of exogenous addition on pre-biofilms (biomass) (PAO1 preformed biofilms): significant effects on eradicating pre-biofilms

Molecule: O=C(O)CCC(=O)O [succinate]
- reduction in surface-attached biofilm biomass (surface-attached biofilm): ~80%
- effect of exogenous addition on pre-biofilms (biomass) (PAO1 preformed biofilms): significant effects on eradicating pre-biofilms

Molecule: GLLRKGGEKIGEKLKKIGQKIKNFFQKLVPQPEQ [CRAMP-34]
- MIC (PAO1): 31.25 µg/mL
